Laboratory results published in patent US20070249607A1, “NK-1 AND SEROTONIN TRANSPORTER INHIBITORS” (Bristol-Myers Squibb Company, priority 2006, published 2007).
Where two headings read alike, the source gives them in different places.

Key:
[1] = molecular target: T1, neurokinin-1 (NK-1) receptor (Homo sapiens, UniProt P25103); experiment: NK-1 Binding assay ([125I] Substance P competition, U373 cell membranes); settings: U373 membranes, [125I] Substance P displacement, read-out: NK-1 IC50
T1 construct: a human glioblastoma-astrocytoma cell line that endogenously expresses the neurokinin-1 (NK-1) receptor; endogenous in cells; host or cells: U373 human glioblastoma-astrocytoma cells (membranes)
T1 sequence (P25103 whole entry): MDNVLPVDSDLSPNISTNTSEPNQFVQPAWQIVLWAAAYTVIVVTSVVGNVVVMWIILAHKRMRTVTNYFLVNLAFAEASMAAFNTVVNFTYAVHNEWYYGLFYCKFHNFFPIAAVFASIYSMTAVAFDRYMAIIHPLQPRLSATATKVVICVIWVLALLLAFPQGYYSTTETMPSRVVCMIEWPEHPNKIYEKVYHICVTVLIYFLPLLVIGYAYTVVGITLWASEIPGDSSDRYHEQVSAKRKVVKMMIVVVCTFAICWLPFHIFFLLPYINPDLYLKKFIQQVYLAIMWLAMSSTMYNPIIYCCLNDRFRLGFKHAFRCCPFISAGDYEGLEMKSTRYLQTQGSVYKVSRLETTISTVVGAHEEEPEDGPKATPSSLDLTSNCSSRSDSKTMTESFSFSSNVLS
Method: NK-1 Binding assay. U373 cells, a human glioblastoma-astrocytoma cell line that endogenously expresses the neurokinin-1 (NK-1) receptor, were grown in a monolayer culture at 37° C. in 5% CO2 and fed with Minimum Essential Medium (MEM) supplemented with 10% fetal bovine serum. Membranes were prepared as follows: Cells were washed twice with ice-cold phosphate-buffered saline (pH 7.4) and then incubated for 5-10 minutes with ice-cold 10 mM Tris buffer (pH 7.4) containing 5 mM EDTA. Cells were removed from plates, homogenized, and centrifuged at 32,000×g for 20 minutes. The resulting supernatant was discarded, and the pellet resuspended by homogenization in 50 mM Tris buffer (pH 7.4) containing 1 mM EDTA and centrifuged at 32,000×g for 20 minutes. The resulting supernatant was discarded, and the pellet resuspended by homogenization in NK-1 binding assay buffer (50 mM Tris-HCL (pH 7.4), 3 mM MnCl2, 200 μg/ml BSA, 5 μg/ml chymostatin, 40 μg/ml bacitracin and 4 μg/ml leupeptin).
On the day of an experiment the membrane preparation was thawed, homogenized and diluted with NK-1 binding assay buffer to the appropriate concentration. […] Substance P, at a concentration of […], and concentrations of drugs ranging from 10000 to 0.01 nM. Samples were incubated for 30 min at 20° C. then filtered through GF/B glass fiber filters (pretreated with 1% polyethyleneimine and 0.3% Triton X-100) using a Brandel cell harvester. The filters were then washed with 10 ml ice cold 50 mM Tris-HCL (pH 7.4) containing 3 mM MgCl2. […] The amount of radioligand bound in the presence and absence of competitor was analyzed by plotting (-)log drug concentration versus the amount of radioligand specifically bound. The midpoint of the displacement curve (IC50, nM), signifies the potency.

[2] = molecular target: T2, human serotonin transporters (Homo sapiens, UniProt P31645); experiment: Serotonin transporter binding assay ([3H]-citalopram competition, HEK-hSERT cell membranes)
T2 construct: expressed in transfected cells
T2 sequence (P31645 whole entry): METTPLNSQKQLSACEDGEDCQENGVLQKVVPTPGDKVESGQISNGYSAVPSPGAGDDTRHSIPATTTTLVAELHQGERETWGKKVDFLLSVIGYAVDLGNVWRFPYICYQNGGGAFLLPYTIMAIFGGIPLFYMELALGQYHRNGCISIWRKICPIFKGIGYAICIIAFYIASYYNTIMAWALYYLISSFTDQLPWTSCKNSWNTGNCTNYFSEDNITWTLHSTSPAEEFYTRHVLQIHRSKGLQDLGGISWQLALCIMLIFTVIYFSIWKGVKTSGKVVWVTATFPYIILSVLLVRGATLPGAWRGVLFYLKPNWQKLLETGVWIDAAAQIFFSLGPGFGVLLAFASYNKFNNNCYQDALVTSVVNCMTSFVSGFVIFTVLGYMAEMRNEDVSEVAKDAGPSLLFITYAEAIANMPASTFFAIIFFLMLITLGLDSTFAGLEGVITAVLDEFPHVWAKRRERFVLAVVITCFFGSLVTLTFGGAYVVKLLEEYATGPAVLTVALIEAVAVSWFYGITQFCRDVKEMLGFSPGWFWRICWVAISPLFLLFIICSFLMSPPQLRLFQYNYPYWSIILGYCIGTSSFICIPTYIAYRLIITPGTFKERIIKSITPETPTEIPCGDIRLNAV
Method: Serotonin transporter binding assay. HEK-293 cells that stably express human serotonin transporters (HEK-hSERT cells) were grown at 37° C. in 5% CO2 as a monolayer in medium consisting of EMEM supplemented with 10% fetal bovine serum and G418 sulfate (500 μg/ml). To prepare membranes for radioligand binding experiments, cells were rinsed twice with phosphate-buffered saline (138 mM NaCl, 4.1 mM KCl, 5.1 mM Na2PO4, 1.5 mM KH2PO4, 11.1 mM glucose, pH 7.4). Cells were transferred from plates to polypropylene tubes (16×100 mm), centrifuged at 1,200×g for 5 min and were frozen at −80° C. until assay. Following centrifugation, pellets were resuspended by homogenization in buffer consisting of 50 mM Tris (pH 7.7 at 25° C.), 120 mM NaCl and 5 mM KCl and then centrifuged at 32,000×g for 10 min. Following centrifugation, supernatants were discarded and pellets were resuspended in buffer consisting of 50 mM Tris (pH 7.4 at 25° C.), 150 mM NaCl and 5 mM KCl. Membrane homogenates (200 μl/plate) were incubated with 1 nM [^3H]-citalopram (specific activity=85 Ci/mmol) and increasing concentrations of test compounds for 1 hr at 25° C. in a total volume of 250 μl. The assay buffer consisted of 50 mM Tris (pH 7.4 at 25° C.), 120 mM NaCl and 5 mM KCl (pH 7.4 with conc. HCl). Plates were incubated for 1 hr at 25° C., then filtered through 0.5% PEI treated Whatman GF/B filters using a Brandel cell harvester. Filters were washed three times with 3 ml of ice-cold tris wash buffer. Non-specific binding was defined with 10 μM fluoxetine. Amount of radioligand bound in the presence and absence of competitor was analyzed by plotting (-)log drug concentration versus the amount of radioligand specifically bound. The midpoint of the displacement curve (IC50, nM), signifies the potency. Ki values can be calculated using the method of Cheng and Prusoff (Cheng and Prusoff, BiochemicalPharmacology, Vol 22, pp. 3099-3108, Pergamon Press (1973)).

[3] = Table 1, HEK-hSERT membranes, [3H]-citalopram displacement, read-out: SERT IC50
[4] = Table 2, HEK-hSERT membranes, [3H]-citalopram displacement, read-out: SERT IC50

Row | Structure (SMILES) | IC50 ([1]; Table 1) [nM] | IC50 [2, 3] [nM] | IC50 ([1]; Table 2) [nM] | IC50 [2, 4] [nM] | IC50 [2] [nM]
1 | Cc1cc(-c2cc(COCC3(c4ccccc4)CCNCC3)cc(C(F)(F)F)c2)ccn1 | 0.01 to 100 | 0.01 to 100 |  |  | 
2 | CCCOc1cccc(-c2cc(COCC3(c4ccccc4)CCNCC3)cc(C(F)(F)F)c2)c1 |  |  | > 300 | 100 to 300 | 
3 | CN(C)C(=O)c1cc(COCC2(c3ccccc3)CCNCC2)cc(-c2ccc(C#N)cc2)c1 |  |  | > 300 | 0.01 to 100 | 
4 | FC(F)(F)c1cc(COCC2(c3ccccc3)CCNCC2)cc(-c2c(Cl)cccc2Cl)c1 | 100 to 300 | 0.01 to 100 |  |  | 
5 | COc1ccc(-c2cc(COCC3(c4ccccc4)CCN(C)CC3)cc(C(F)(F)F)c2)cc1 |  |  | 0.01 to 100 |  | 0.01 to 100
6 | COc1cc(-c2cc(COCC3(c4ccccc4)CCNCC3)cc(C(F)(F)F)c2)ccn1 | 0.01 to 100 | 0.01 to 100 |  |  | 
7 | COc1ccc(-c2cc(COCC3(c4ccccc4)CCNCC3)cc(C(F)(F)F)c2)c(F)c1F |  |  | 0.01 to 100 | 0.01 to 100 | 
8 | Cn1nnnc1-c1cc(COCC2(c3ccccc3)CCNCC2)cc(C(F)(F)F)c1 | 0.01 to 100 | 0.01 to 100 |  |  | 
9 | COc1ccc(-c2ccc(C#N)cc2)cc1COCC1(c2ccccc2)CCNCC1 | 0.01 to 100 | 0.01 to 100 |  |  | 
10 | Cc1ccc(-c2cc(COCC3(c4ccccc4)CCNCC3)cc(C(F)(F)F)c2)cc1 | 0.01 to 100 | 0.01 to 100 |  |  | 
11 | CN1CCN(c2cc(-c3cc(COCC4(c5ccccc5)CCNCC4)cc(C(F)(F)F)c3)ccn2)CC1 | > 300 | 100 to 300 |  |  | 
12 | N#Cc1ccc(-c2cc(COCC3(c4ccccc4)CCNCC3)cc(C(F)(F)F)c2)cc1Cl |  |  | 0.01 to 100 | 0.01 to 100 | 
13 | Cc1ccccc1-c1cc(COCC2(c3ccccc3)CCNCC2)cc(C(F)(F)F)c1 | 100 to 300 | 0.01 to 100 |  |  | 
14 | N#Cc1ccc(-c2cc(C#N)cc(COCC3(c4ccccc4)CCNCC3)c2)cc1 |  |  | 0.01 to 100 | 0.01 to 100 | 
15 | FC(F)(F)c1cc(COCC2(c3ccccc3)CCNCC2)cc(-c2ccccc2Oc2ccccc2)c1 | > 300 | 100 to 300 |  |  | 
16 | FC(F)(F)c1cc(COCC2(c3ccccc3)CCNCC2)cc(-c2ccccn2)c1 | 0.01 to 100 | 0.01 to 100 |  |  | 
17 | COc1ccc(-c2cc(COCC3(c4ccccc4)CCNCC3)cc(C(F)(F)F)c2)cc1 | 0.01 to 100 | 0.01 to 100 |  |  | 
18 | N#Cc1ccc(-c2cc(COCC3(c4ccc(F)cc4C#N)CCNCC3)cc(C(F)(F)F)c2)cc1 |  |  | 0.01 to 100 | 0.01 to 100 | 
19 | COc1cccc(-c2cc(COCC3(c4ccccc4)CCNCC3)cc(C(F)(F)F)c2)c1OC |  |  | 100 to 300 | 100 to 300 | 
20 | N#Cc1ccc(-c2cc(F)cc(COCC3(c4ccccc4)CCNCC3)c2)cc1 |  |  | 0.01 to 100 | 0.01 to 100 | 
21 | FC(F)(F)c1cc(COCC2(c3ccccc3)CCNCC2)cc(-c2cnc(Cl)nc2)c1 |  |  | 0.01 to 100 | 0.01 to 100 | 
22 | Cc1cc(C#N)ccc1-c1cc(COCC2(c3ccccc3)CCNCC2)cc(C(F)(F)F)c1 |  |  | 0.01 to 100 | 0.01 to 100 | 
23 | COc1ccc(-c2cc(COCC3(c4ccccc4)CCNCC3)cc(C(F)(F)F)c2)c(OC)c1 | 0.01 to 100 | 0.01 to 100 |  |  | 
24 | CN1CCC(COCc2cc(-c3ccc(C#N)cc3)cc(C(F)(F)F)c2)(c2ccc(F)cc2)CC1 | 0.01 to 100 |  |  |  | 0.01 to 100
25 | N#Cc1ccc(-c2cc(COCC3(c4ccc(F)cc4)CCNCC3)cc(C(F)(F)F)c2)cc1 | 0.01 to 100 | 0.01 to 100 |  |  | 
26 | N#Cc1ccc(-c2cc(COCC3(c4ccccc4)CCNCC3)cc(C(=O)N3CCOCC3)c2)cc1 |  |  | > 300 | 0.01 to 100 | 
27 | CN1CCC(COCc2cc(-c3ccc(C#N)cc3)cc(C(F)(F)F)c2)(c2cccc(Cl)c2)CC1 |  |  | 0.01 to 100 |  | 0.01 to 100

Row | Structure (SMILES) | IC50 ([1]; Table 1) [nM] | IC50 [2, 3] [nM] | IC50 ([1]; Table 2) [nM] | IC50 [2, 4] [nM] | IC50 [2] [nM]
28 | CN1CCC(COCc2cc(-c3ccc(C#N)cc3)cc(C(F)(F)F)c2)(c2ccc(F)cc2F)CC1 |  |  | 0.01 to 100 |  | 0.01 to 100
29 | CC(C)Cc1ccc(-c2cc(COCC3(c4ccccc4)CCNCC3)cc(C(F)(F)F)c2)cc1 |  |  | > 300 | 100 to 300 | 
30 | FC(F)(F)c1cc(COCC2(c3ccccc3)CCNCC2)cc(-c2ccncc2)c1 | 0.01 to 100 | 0.01 to 100 |  |  | 
31 | Cc1cccc(-c2cc(COCC3(c4ccccc4)CCNCC3)cc(C(F)(F)F)c2)c1 | 0.01 to 100 | 0.01 to 100 |  |  | 
32 | Cc1ccc(-c2cc(COCC3(c4ccccc4)CCNCC3)cc(C(F)(F)F)c2)s1 | 0.01 to 100 | 0.01 to 100 |  |  | 
33 | COc1ncc(-c2cc(COCC3(c4ccccc4)CCNCC3)cc(C(F)(F)F)c2)cn1 | 0.01 to 100 | 0.01 to 100 |  |  | 
34 | CN1CCC(COCc2cc(-c3c(F)c(F)c(C#N)c(F)c3F)cc(C(F)(F)F)c2)(c2ccccc2)CC1 |  |  | 0.01 to 100 |  | 0.01 to 100
35 | FC(F)(F)c1cc(COCC2(c3ccccc3)CCNCC2)cc(-c2cnc3ccccc3c2)c1 | 100 to 300 | 0.01 to 100 |  |  | 
36 | CCOc1cccc(-c2cc(COCC3(c4ccccc4)CCNCC3)cc(C(F)(F)F)c2)c1 | 100 to 300 | 0.01 to 100 |  |  | 
37 | CC(OCC1(c2ccccc2)CCNCC1)c1cc(-c2ccc(C#N)cc2)cc(C(F)(F)F)c1 (stereo not shown) | 0.01 to 100 | 0.01 to 100 |  |  | 
38 | O=C(OCc1ccccc1)c1cccc(-c2cc(COCC3(c4ccccc4)CCNCC3)cc(C(F)(F)F)c2)c1 |  |  | > 300 | 0.01 to 100 | 
39 | N#Cc1cc(COCC2(c3ccccc3)CCNCC2)cc(-c2ccc(F)cc2)c1 |  |  | 0.01 to 100 | 0.01 to 100 | 
40 | N#Cc1ccc(-c2cc(Cl)cc(COCC3(c4ccccc4)CCNCC3)c2)cc1 |  |  | 0.01 to 100 | 0.01 to 100 | 
41 | COc1ncc(-c2cc(COCC3(c4ccccc4)CCNCC3)cc(C(F)(F)F)c2)c(OC)n1 | 100 to 300 | 0.01 to 100 |  |  | 
42 | COc1cc(F)c(-c2cc(COCC3(c4ccccc4)CCN(C)CC3)cc(C(F)(F)F)c2)cc1F |  |  | 0.01 to 100 |  | 0.01 to 100
43 | O=[N+]([O-])c1cccc(-c2cc(COCC3(c4ccccc4)CCNCC3)cc(C(F)(F)F)c2)c1 | 0.01 to 100 | 0.01 to 100 |  |  | 
44 | CN1CCC(COCc2cc(-c3ccc(C#N)cc3)cc(C(F)(F)F)c2)(c2cccc(C#N)c2)CC1 |  |  | 0.01 to 100 |  | 0.01 to 100
45 | O=C(Nc1ccc(-c2cc(COCC3(c4ccccc4)CCNCC3)cc(C(F)(F)F)c2)cc1)OCc1ccccc1 |  |  | 0.01 to 100 | 0.01 to 100 | 
46 | CC(OCC1(c2ccccc2)CCN(C)CC1)c1cc(-c2ccc(C#N)cc2)cc(C(F)(F)F)c1 (stereo not shown) | 0.01 to 100 |  |  |  | 0.01 to 100
47 | N#Cc1cccc(-c2cc(COCC3(c4ccccc4)CCNCC3)cc(C(F)(F)F)c2)c1 | 0.01 to 100 | 0.01 to 100 |  |  | 
48 | O=[N+]([O-])c1ccccc1-c1cc(COCC2(c3ccccc3)CCNCC2)cc(C(F)(F)F)c1 |  |  | 0.01 to 100 | 0.01 to 100 | 
49 | N#Cc1cc(F)c(-c2cc(COCC3(c4ccccc4)CCNCC3)cc(C(F)(F)F)c2)cc1F |  |  | 0.01 to 100 | 0.01 to 100 | 
50 | Cc1cnccc1-c1cc(COCC2(c3ccccc3)CCNCC2)cc(C(F)(F)F)c1 | 0.01 to 100 | 0.01 to 100 |  |  | 
51 | Cc1ccncc1-c1cc(COCC2(c3ccccc3)CCNCC2)cc(C(F)(F)F)c1 | > 300 | 0.01 to 100 |  |  | 
52 | N#Cc1ccc(-c2cc(COCC3(c4ccc(F)cc4Br)CCNCC3)cc(C(F)(F)F)c2)cc1 |  |  | 0.01 to 100 | 0.01 to 100 | 
53 | NC(=O)c1cc(COCC2(c3ccccc3)CCNCC2)cc(-c2ccc(F)cc2)c1 |  |  | > 300 | 0.01 to 100 | 
